Test results reported in ChEMBL document CHEMBL4387741, “Optimization of novel reversible Bruton's tyrosine kinase inhibitors identified using Tethering-fragment-based screens” (Bioorg Med Chem, 2019).

Columns and labels:
B cell [1] = assay: Antiproliferative activity against goat anti-human IgM antibody/recombinant human IL4-stimulated human PBMC-derived B cells assessed as decrease in cell viability pretreated for 30 mins followed by goat anti-human IgM antibody/recombinant human IL4 stimulation for 3 days by CellTiter-Glo reagent assay; assay type: functional, cell-based
[2] = tested on: Epidermal growth factor receptor (Homo sapiens), P00533 [G719C]; assay: Inhibition of human partial length EGFR G719C mutant (R669 to V1011 residues) expressed in bacterial expression system at 1 uM by Kinomescan method relative to control
Cytochrome P450 2C9 = Cytochrome P450 2C9 (Homo sapiens, UniProt P11712); assay: Inhibition of CYP2C9 (unknown origin)
Sequence of Cytochrome P450 2C9 (P11712 whole entry, the tested form may be a part): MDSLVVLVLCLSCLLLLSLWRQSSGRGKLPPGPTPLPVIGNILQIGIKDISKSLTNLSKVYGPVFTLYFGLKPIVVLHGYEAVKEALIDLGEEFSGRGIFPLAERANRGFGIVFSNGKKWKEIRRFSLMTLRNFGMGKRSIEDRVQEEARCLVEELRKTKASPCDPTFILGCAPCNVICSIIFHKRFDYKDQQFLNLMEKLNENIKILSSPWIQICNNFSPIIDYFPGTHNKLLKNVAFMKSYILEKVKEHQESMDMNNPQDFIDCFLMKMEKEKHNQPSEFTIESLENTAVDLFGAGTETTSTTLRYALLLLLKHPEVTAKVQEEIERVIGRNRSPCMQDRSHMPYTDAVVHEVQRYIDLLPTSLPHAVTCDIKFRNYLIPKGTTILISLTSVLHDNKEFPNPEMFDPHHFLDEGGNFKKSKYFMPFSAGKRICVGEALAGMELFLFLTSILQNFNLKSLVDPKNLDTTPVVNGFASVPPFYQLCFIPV

[3] = molecular target: Tyrosine-protein kinase TXK (Homo sapiens, UniProt P42681); assay: Binding affinity to wild-type human partial length TXK tyrosine kinase (L238 to W527 residues) expressed in bacterial expression system by Kinomescan method
Sequence of Tyrosine-protein kinase TXK (P42681 whole entry, the tested form may be a part): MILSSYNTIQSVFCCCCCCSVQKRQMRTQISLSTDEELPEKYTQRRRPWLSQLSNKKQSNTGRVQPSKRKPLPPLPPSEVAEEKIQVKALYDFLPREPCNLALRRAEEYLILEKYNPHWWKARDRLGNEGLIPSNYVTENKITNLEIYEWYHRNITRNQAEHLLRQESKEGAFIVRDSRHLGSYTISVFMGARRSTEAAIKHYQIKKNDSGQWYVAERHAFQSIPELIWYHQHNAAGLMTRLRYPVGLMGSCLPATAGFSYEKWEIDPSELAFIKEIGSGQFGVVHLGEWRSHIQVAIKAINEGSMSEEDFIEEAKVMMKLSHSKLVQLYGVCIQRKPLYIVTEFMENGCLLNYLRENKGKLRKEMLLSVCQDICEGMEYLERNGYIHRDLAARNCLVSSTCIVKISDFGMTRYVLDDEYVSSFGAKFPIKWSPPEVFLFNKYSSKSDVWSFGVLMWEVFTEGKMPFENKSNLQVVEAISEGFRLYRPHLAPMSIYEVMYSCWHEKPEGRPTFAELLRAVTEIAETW

B cell [4] = assay: Antiproliferative activity against goat anti-human IgM antibody-stimulated human PBMC-derived B cells assessed as decrease in cell viability pretreated for 30 mins followed by goat anti-human IgM antibody stimulation for 3 days by CellTiter-Glo reagent assay; assay type: functional, cell-based
[5] = molecular target: Tyrosine-protein kinase ITK/TSK (Homo sapiens, UniProt Q08881); assay: Binding affinity to wild-type human partial length ITK (R335 to L620 residues) expressed in bacterial expression system by Kinomescan method
Sequence of Tyrosine-protein kinase ITK/TSK (Q08881 whole entry, the tested form may be a part): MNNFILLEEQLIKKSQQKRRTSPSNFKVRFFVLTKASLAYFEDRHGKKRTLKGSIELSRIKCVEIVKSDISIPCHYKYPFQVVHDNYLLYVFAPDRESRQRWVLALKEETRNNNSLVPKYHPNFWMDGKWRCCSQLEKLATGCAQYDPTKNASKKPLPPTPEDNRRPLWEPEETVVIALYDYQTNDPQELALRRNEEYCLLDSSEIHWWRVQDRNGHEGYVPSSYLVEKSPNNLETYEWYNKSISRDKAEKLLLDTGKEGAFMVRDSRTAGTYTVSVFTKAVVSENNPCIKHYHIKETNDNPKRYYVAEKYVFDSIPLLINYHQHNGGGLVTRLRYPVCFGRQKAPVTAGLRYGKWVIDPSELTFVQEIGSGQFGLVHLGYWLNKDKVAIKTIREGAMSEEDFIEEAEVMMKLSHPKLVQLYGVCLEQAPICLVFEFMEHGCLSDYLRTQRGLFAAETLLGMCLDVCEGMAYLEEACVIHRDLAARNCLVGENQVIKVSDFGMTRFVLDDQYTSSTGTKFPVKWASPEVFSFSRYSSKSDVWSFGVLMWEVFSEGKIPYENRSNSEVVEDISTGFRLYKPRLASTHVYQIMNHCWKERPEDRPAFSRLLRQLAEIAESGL

Cytochrome P450 2C19 = Cytochrome P450 2C19 (Homo sapiens, UniProt P33261); assay: Inhibition of CYP2C19 (unknown origin)
Sequence of Cytochrome P450 2C19 (P33261 whole entry, the tested form may be a part): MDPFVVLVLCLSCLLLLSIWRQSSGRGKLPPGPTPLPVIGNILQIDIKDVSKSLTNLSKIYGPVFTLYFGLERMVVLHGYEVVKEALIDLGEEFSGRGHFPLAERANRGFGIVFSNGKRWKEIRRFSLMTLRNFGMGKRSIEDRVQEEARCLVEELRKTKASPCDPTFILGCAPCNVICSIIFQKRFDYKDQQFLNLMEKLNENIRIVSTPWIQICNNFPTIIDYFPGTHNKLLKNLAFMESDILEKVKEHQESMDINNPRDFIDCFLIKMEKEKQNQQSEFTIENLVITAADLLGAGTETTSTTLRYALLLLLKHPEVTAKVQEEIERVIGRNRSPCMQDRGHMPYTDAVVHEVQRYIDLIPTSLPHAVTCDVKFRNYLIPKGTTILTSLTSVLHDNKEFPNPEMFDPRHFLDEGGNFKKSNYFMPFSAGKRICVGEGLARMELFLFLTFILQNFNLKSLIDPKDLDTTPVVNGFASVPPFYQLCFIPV

[6] = molecular target: Serine/threonine-protein kinase 36 (Homo sapiens) (UniProt Q9NRP7); assay: Inhibition of wild-type human partial length STK36 (M1 to T271 residues) expressed in bacterial expression system at 1 uM by Kinomescan method relative to control
B cell [7] = assay: Antiproliferative activity against goat anti-human IgM antibody/BAFF-stimulated human PBMC-derived B cells assessed as decrease in cell viability pretreated for 30 mins followed by goat anti-human IgM antibody/BAFF stimulation for 3 days by CellTiter-Glo reagent assay; assay type: functional, cell-based
[8] = molecular target: LIM domain kinase 2 (Homo sapiens) (UniProt P53671); assay: Inhibition of wild-type human full length LIMK2 (M1 to P638 residues) expressed in bacterial expression system at 1 uM by Kinomescan method relative to control
[9] = molecular target: Serine/threonine-protein kinase pim-2 (Homo sapiens) (UniProt Q9P1W9); assay: Inhibition of wild-type human partial length PIM2 (M1 to E291 residues) expressed in bacterial expression system at 1 uM by Kinomescan method relative to control
[10] = molecular target: Serine/threonine-protein kinase DCLK2 (Homo sapiens) (UniProt Q8N568); assay: Inhibition of wild-type human partial length DCAMKL2 (K273 to V664 residues) expressed in bacterial expression system at 1 uM by Kinomescan method relative to control
[11] = molecular target: Tyrosine-protein kinase Tec (Homo sapiens, UniProt P42680); assay: Binding affinity to wild-type human partial length TEC (L341 to D620 residues) expressed in bacterial expression system by Kinomescan method
Sequence of Tyrosine-protein kinase Tec (P42680 whole entry, the tested form may be a part): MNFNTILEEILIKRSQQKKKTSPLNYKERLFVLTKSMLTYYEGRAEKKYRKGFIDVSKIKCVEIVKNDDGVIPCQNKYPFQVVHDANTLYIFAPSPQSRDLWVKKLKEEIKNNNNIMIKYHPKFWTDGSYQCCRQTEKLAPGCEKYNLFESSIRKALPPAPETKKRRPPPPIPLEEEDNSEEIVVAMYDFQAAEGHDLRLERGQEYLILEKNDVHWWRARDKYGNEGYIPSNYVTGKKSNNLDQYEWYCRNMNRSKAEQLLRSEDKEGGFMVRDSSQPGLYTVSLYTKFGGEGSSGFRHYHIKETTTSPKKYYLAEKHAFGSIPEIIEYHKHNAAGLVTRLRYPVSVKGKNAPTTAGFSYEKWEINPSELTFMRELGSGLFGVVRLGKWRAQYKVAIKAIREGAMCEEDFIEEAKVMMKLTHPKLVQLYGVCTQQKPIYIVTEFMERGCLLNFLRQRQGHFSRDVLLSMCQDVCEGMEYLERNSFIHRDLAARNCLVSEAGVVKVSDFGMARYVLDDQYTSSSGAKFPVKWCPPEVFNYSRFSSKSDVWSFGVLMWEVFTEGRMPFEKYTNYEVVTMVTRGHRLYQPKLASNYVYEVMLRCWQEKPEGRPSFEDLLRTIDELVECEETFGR

[12] = molecular target: Cyclin-dependent kinase 13 (Homo sapiens) (UniProt Q14004); assay: Inhibition of wild-type human partial length CDC2L5 (H675 to S1054 residues) expressed in mammalian expression system at 1 uM by Kinomescan method relative to control
[13] = molecular target: STE20-like serine/threonine-protein kinase (Homo sapiens) (UniProt Q9H2G2); assay: Inhibition of wild-type human partial length SLK (S14 to A307 residues) expressed in bacterial expression system at 1 uM by Kinomescan method relative to control
Cytochrome P450 3A4 = Cytochrome P450 3A4 (Homo sapiens, UniProt P08684); assay: Inhibition of CYP3A4 (unknown origin)
Sequence of Cytochrome P450 3A4 (P08684 whole entry): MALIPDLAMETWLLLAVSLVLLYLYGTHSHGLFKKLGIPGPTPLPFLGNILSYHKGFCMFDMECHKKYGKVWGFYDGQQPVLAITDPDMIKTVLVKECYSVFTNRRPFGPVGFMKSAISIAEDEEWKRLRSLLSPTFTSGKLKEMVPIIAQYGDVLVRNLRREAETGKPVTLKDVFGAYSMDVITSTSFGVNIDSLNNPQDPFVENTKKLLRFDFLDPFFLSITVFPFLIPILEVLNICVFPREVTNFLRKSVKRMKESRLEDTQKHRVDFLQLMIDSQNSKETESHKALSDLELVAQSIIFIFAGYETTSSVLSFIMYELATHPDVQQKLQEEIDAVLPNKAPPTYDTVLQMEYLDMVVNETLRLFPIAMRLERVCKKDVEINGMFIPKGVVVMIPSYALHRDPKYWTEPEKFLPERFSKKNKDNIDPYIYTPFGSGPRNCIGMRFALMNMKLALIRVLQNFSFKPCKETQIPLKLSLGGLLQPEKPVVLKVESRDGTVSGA

Cytochrome P450 1A2 = Cytochrome P450 1A2 (Homo sapiens, UniProt P05177); assay: Inhibition of CYP1A2 (unknown origin)
Sequence of Cytochrome P450 1A2 (P05177 whole entry, the tested form may be a part): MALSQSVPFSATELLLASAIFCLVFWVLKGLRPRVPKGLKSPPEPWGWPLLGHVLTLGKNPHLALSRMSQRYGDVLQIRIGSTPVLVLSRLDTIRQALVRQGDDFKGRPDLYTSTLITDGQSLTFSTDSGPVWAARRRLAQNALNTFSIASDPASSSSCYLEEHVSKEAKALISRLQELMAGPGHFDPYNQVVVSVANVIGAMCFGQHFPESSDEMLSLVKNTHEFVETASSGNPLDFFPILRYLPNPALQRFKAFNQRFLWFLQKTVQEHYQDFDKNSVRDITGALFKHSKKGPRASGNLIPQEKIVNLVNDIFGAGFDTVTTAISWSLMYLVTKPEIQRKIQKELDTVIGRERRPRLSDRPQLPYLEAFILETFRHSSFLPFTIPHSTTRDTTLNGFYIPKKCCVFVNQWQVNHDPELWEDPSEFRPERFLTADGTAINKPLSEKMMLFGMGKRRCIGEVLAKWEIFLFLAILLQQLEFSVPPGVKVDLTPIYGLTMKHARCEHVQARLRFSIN

[14] = molecular target: Serine/threonine-protein kinase OSR1 (Homo sapiens) (UniProt O95747); assay: Inhibition of wild-type human full length OSR1 (M1 to S527 residues) expressed in mammalian expression system at 10 uM by Kinomescan method relative to control
Sequence of Serine/threonine-protein kinase OSR1 (Homo sapiens) (O95747 2-527 limits assumed): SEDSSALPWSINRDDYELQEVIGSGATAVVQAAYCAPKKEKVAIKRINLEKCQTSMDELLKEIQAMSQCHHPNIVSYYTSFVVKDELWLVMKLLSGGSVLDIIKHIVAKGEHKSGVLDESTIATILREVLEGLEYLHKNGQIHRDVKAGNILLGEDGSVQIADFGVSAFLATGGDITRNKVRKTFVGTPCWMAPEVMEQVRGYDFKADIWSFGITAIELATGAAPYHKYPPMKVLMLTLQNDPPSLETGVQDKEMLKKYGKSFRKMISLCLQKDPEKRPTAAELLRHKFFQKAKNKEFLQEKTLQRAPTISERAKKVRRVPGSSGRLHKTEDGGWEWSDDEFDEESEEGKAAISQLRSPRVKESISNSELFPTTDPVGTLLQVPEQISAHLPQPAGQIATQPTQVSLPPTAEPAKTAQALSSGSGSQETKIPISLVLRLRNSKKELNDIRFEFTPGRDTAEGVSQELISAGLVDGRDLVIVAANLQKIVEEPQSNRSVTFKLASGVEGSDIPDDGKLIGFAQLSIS

[15] = molecular target: Tyrosine-protein kinase receptor TYRO3 (Homo sapiens) (UniProt Q06418); assay: Inhibition of wild-type human partial length TYRO3 (S497 to T814 residues) expressed in bacterial expression system at 10 uM by Kinomescan method relative to control
[16] = molecular target: Mitogen-activated protein kinase kinase kinase 19 (Homo sapiens) (UniProt Q56UN5); assay: Inhibition of wild-type human partial length YSK4 (T1019 to H1328 residues) expressed in mammalian expression system at 10 uM by Kinomescan method relative to control
[17] = molecular target: Serine/threonine-protein kinase MAK (Homo sapiens) (UniProt P20794); assay: Inhibition of wild-type human partial length MAK (M1 to P314 residues) expressed in bacterial expression system at 10 uM by Kinomescan method relative to control
[18] = molecular target: Cyclin-G-associated kinase (Homo sapiens) (UniProt O14976); assay: Inhibition of wild-type human partial length GAK (G13 to Y338 residues) expressed in bacterial expression system at 10 uM by Kinomescan method relative to control
[19] = molecular target: MAP kinase-activated protein kinase 2 (Homo sapiens) (UniProt P49137); assay: Inhibition of wild-type human partial length MAPKAPK2 (V48 to D345 residues) expressed in bacterial expression system at 10 uM by Kinomescan method relative to control
Sequence of MAP kinase-activated protein kinase 2 (Homo sapiens) (P49137 whole entry, looked up, the tested form may be a part): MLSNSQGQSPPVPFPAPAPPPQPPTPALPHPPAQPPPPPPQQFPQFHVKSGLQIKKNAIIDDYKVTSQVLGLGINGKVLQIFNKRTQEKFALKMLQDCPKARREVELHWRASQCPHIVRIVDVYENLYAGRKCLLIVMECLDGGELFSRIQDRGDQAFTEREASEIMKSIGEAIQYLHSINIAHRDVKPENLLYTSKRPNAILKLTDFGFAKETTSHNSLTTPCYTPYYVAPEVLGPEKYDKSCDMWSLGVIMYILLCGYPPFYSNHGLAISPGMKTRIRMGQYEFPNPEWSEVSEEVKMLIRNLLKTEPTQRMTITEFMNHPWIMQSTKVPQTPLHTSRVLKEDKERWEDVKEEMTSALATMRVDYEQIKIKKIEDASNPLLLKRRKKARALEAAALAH

[20] = molecular target: Serine/threonine-protein kinase N2 (Homo sapiens) (UniProt Q16513); assay: Inhibition of wild-type human partial length PKN2 (E634 to C984 residues) expressed in bacterial expression system at 10 uM by Kinomescan method relative to control
[21] = molecular target: Mitogen-activated protein kinase kinase kinase 3 (Homo sapiens) (UniProt Q99759); assay: Inhibition of wild-type human partial length MAP3K3 (E320 to Y626 residues) expressed in mammalian expression system at 10 uM by Kinomescan method relative to control
[22] = tested on: Mast/stem cell growth factor receptor Kit (Homo sapiens), P10721 [UNDEFINED MUTATION]; assay: Inhibition of human partial length KIT V559D/V654 double mutant (Y545 to D952 residues) expressed in bacterial expression system at 10 uM by Kinomescan method relative to control
[23] = molecular target: Tyrosine-protein kinase JAK2 (Homo sapiens) (UniProt O60674); assay: Inhibition of wild-type human partial length JAK2 JH1 catalytic domain (A829 to G1132 residues) expressed in mammalian expression system at 10 uM by Kinomescan method relative to control
[24] = molecular target: Receptor-type tyrosine-protein kinase FLT3 (Homo sapiens) (UniProt P36888); assay: Inhibition of wild-type human partial length FLT3 (V592 to Y969 residues) expressed in bacterial expression system at 10 uM by Kinomescan method relative to control
[25] = molecular target: Casein kinase I isoform gamma-3 (Homo sapiens) (UniProt Q9Y6M4); assay: Inhibition of wild-type human full length CSNK1G3 (M1 to K447 residues) expressed in bacterial expression system at 10 uM by Kinomescan method relative to control

| SMILES | IC50 (B cell [1]) [nM] | IC50 (Cytochrome P450 2C9) [nM] | Kd [3] [nM] | IC50 (B cell [4]) [nM] | Kd [5] [nM] | IC50 (Cytochrome P450 2C19) [nM] | IC50 (B cell [7]) [nM] | Kd [11] [nM] | IC50 (Cytochrome P450 3A4) [nM] | IC50 (Cytochrome P450 1A2) [nM] | also measured |
| --- | --- | --- | --- | --- | --- | --- | --- | --- | --- | --- | --- |
| O=C(Nc1cccc([C@@H]2CN(c3ncnc4[nH]ccc34)CCN2CCO)c1)Nc1c(F)cccc1N1CCCC1 | 238 to 240 | > 5000 | 530 | 251 | 5 | > 5000 | 92 | 420 | > 5000 | > 5000 | inhibition [2]: 100%; inhibition [6]: 100%; inhibition [8]: 100%; inhibition [9]: 100%; inhibition [10]: 99%; inhibition [12]: 96%; inhibition [13]: 88% |
| O=C(Nc1cccc([C@H]2CCCN(c3ncnc4[nH]ccc34)C2)c1)Nc1ccccc1N1CCCC1 | 1880 | 1800 | > 1000 | 1010 | 400 | 2200 | 916 | > 1000 | 1000 | 2200 | inhibition [14]: 81%; inhibition [15]: 100%; inhibition [16]: 2.3%; inhibition [17]: 100%; inhibition [18]: 24%; inhibition [19]: 100%; inhibition [20]: 32%; inhibition [21]: 24%; inhibition [22]: 26%; inhibition [23]: 0%; inhibition [24]: 7.2%; inhibition [25]: 99% |
